ChEMBL document CHEMBL4800722, “Data for DCP probe BI 605906” (2021)

How the values were obtained:
[1] = target: Proto-oncogene tyrosine-protein kinase Src (Homo sapiens) (UniProt P12931); experiment: SRC N1 Invitrogen Lab (UK) kinase screen (BI); conditions: Compound concentration 1.0 uM
[2] = target: RAC-gamma serine/threonine-protein kinase (Homo sapiens) (UniProt Q9Y243); conditions: Compound concentration 1.0 uM
[3] = target: Mitogen-activated protein kinase kinase kinase kinase 5 (Homo sapiens) (UniProt Q9Y4K4); conditions: Compound concentration 1.0 uM
[4] = target: Protein kinase C delta type (Homo sapiens) (UniProt Q05655); conditions: Compound concentration 1.0 uM
[5] = target: Mitogen-activated protein kinase kinase kinase 5 (Homo sapiens) (UniProt Q99683); conditions: Compound concentration 1.0 uM
[6] = target: SRSF protein kinase 1 (Homo sapiens) (UniProt Q96SB4); experiment: SRPK1 DUNDEE kinase screen (BI); conditions: Compound concentration 10.0 uM
[7] = target: Endothelin-1 receptor (Homo sapiens) (UniProt P25101); conditions: Compound concentration 100.0 uM
[8] = target: Serine/threonine-protein kinase Sgk1 (Homo sapiens) (UniProt O00141); conditions: Compound concentration 1.0 uM
[9] = target: MAP/microtubule affinity-regulating kinase 3 (Homo sapiens) (UniProt P27448); conditions: Compound concentration 1.0 uM
[10] = target: MAP kinase-activated protein kinase 3 (Homo sapiens) (UniProt Q16644); conditions: Compound concentration 1.0 uM
Chain of MAP kinase-activated protein kinase 3 (Homo sapiens) (Q16644 whole entry, looked up): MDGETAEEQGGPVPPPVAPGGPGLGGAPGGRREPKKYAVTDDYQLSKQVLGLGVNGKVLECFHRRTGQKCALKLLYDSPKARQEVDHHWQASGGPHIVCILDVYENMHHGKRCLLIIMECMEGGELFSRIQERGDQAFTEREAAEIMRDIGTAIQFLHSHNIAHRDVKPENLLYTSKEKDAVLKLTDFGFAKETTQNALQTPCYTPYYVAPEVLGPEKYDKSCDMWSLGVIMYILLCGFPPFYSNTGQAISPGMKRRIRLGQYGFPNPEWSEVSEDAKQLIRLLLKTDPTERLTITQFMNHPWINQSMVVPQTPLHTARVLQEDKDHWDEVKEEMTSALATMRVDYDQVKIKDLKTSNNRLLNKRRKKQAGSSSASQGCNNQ

[11] = target: Cyclin-dependent kinase 5/CDK5 activator 1 (Homo sapiens) (UniProt Q00535+Q15078); conditions: Compound concentration 1.0 uM
[12] = target: Tyrosine-protein kinase Fer (Homo sapiens) (UniProt P16591); conditions: Compound concentration 1.0 uM
[13] = target: G protein-coupled receptor kinase 3 (Homo sapiens) (UniProt P35626); conditions: Compound concentration 1.0 uM
Chain of G protein-coupled receptor kinase 3 (Homo sapiens) (P35626 whole entry): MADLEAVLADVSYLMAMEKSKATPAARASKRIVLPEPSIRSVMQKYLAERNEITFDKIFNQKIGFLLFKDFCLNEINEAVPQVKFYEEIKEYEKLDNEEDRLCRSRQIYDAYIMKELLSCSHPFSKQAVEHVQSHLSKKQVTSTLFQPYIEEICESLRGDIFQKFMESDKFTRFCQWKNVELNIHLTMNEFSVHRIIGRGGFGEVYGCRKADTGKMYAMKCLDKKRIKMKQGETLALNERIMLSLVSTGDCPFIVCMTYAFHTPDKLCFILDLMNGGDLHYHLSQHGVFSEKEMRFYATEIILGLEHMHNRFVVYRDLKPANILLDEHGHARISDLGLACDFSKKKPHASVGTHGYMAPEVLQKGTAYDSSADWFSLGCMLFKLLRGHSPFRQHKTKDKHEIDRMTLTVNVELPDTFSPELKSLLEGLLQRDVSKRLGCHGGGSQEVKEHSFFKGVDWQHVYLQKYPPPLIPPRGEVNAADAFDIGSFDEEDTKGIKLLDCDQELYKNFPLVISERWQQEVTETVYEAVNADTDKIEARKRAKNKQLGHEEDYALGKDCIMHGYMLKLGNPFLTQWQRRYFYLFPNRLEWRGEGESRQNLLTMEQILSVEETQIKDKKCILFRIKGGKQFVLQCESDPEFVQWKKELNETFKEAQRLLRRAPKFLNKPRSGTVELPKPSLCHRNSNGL

[14] = target: Protein kinase C zeta type (Homo sapiens) (UniProt Q05513); experiment: PRKCZ Invitrogen Lab (UK) kinase screen (BI); conditions: Compound concentration 1.0 uM
[15] = target: Cyclin-G-associated kinase (Homo sapiens, UniProt O14976); experiment: NanoBRET (SGC-FFM) (GAK)
[16] = target: AMPK alpha1/beta1/gamma3 (Homo sapiens) (UniProt Q9Y478+Q13131+Q9UGI9); experiment: AMPK (A1/B1/G3) Invitrogen Lab (UK) kinase screen (BI); format: protein-complex assay; conditions: Compound concentration 1.0 uM
[17] = target: D(1A) dopamine receptor (Homo sapiens) (UniProt P21728); conditions: Compound concentration 10.0 uM
[18] = target: Calcitonin-gene-related peptide receptor, CALCRL/RAMP1 (Homo sapiens) (UniProt O60894+Q16602)
[19] = target: Cyclin-dependent kinase 16 (Homo sapiens) (UniProt Q00536); conditions: Compound concentration 1.0 uM
[20] = target: Ephrin type-B receptor 4 (Homo sapiens) (UniProt P54760); conditions: Compound concentration 1.0 uM
[21] = target: Myosin-IIIa (Homo sapiens) (UniProt Q8NEV4); conditions: Compound concentration 1.0 uM
[22] = target: Prostaglandin G/H synthase 1 (Homo sapiens) (UniProt P23219); conditions: Compound concentration 10.0 uM
[23] = target: T1, D(4) dopamine receptor (Homo sapiens) (UniProt P21917); conditions: Compound concentration 10.0 uM
T1 sequence (whole entry): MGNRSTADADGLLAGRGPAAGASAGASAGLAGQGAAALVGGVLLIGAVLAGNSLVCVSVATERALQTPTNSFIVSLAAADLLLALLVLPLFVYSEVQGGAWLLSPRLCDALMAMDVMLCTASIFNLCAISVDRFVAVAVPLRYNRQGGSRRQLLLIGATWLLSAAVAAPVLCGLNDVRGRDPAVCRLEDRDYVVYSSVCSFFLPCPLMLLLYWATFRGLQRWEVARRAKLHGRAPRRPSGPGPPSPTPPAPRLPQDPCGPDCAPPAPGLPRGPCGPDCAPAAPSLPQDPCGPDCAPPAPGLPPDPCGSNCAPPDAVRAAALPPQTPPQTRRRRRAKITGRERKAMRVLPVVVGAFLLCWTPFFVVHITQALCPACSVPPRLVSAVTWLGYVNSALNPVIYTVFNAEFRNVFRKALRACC

[24] = target: Serine/threonine-protein kinase PLK3 (Homo sapiens) (UniProt Q9H4B4); conditions: Compound concentration 1.0 uM
[25] = target: Dual specificity mitogen-activated protein kinase kinase 6 (Homo sapiens) (UniProt P52564); experiment: MAP2K6 Invitrogen Lab (UK) kinase screen (BI); conditions: Compound concentration 1.0 uM
[26] = target: Tyrosine-protein kinase JAK3 (Homo sapiens) (UniProt P52333)
Chain of Tyrosine-protein kinase JAK3 (Homo sapiens) (P52333 whole entry): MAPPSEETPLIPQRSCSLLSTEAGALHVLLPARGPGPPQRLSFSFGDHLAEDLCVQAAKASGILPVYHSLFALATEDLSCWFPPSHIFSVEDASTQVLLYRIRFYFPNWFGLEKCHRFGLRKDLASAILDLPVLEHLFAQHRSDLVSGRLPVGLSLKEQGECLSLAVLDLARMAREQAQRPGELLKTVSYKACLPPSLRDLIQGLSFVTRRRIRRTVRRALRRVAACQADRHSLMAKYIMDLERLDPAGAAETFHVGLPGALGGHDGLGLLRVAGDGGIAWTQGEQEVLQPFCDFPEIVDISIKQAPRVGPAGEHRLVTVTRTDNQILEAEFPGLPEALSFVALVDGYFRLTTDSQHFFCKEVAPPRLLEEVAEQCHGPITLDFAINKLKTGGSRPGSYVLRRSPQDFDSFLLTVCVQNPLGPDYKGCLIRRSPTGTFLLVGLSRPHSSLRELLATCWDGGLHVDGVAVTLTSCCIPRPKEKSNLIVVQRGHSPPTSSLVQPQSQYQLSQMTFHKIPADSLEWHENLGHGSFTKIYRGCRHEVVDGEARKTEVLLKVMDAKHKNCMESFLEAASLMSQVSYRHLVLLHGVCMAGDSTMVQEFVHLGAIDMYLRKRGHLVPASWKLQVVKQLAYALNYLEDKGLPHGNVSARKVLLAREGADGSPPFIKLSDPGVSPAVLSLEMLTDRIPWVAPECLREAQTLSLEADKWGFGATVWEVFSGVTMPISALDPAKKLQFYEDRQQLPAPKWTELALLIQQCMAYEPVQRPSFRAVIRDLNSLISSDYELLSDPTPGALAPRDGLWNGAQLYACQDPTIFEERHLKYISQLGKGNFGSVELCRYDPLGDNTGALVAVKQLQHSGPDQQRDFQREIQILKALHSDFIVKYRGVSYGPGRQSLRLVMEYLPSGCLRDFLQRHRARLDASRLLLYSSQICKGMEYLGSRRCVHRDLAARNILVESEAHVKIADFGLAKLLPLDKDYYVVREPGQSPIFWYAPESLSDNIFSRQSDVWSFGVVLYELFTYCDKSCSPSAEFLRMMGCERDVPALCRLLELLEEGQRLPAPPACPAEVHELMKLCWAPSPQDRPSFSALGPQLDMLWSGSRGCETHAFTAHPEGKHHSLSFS

[27] = target: CDK17/Cyclin-Y (Homo sapiens) (UniProt Q00537+Q8ND76); experiment: CDK17/CYCLIN Y Invitrogen Lab (UK) kinase screen (BI); format: protein-complex assay; conditions: Compound concentration 1.0 uM
[28] = target: CDK8/Cyclin C (Homo sapiens) (UniProt P49336+P24863); conditions: Compound concentration 1.0 uM
[29] = target: 3-hydroxy-3-methylglutaryl-coenzyme A reductase (Rattus norvegicus) (UniProt P51639); experiment: HMGCOARED Eurofins SafetyScreen44 (BI); conditions: Compound concentration 10.0 uM
Chain of 3-hydroxy-3-methylglutaryl-coenzyme A reductase (Rattus norvegicus) (P51639 whole entry): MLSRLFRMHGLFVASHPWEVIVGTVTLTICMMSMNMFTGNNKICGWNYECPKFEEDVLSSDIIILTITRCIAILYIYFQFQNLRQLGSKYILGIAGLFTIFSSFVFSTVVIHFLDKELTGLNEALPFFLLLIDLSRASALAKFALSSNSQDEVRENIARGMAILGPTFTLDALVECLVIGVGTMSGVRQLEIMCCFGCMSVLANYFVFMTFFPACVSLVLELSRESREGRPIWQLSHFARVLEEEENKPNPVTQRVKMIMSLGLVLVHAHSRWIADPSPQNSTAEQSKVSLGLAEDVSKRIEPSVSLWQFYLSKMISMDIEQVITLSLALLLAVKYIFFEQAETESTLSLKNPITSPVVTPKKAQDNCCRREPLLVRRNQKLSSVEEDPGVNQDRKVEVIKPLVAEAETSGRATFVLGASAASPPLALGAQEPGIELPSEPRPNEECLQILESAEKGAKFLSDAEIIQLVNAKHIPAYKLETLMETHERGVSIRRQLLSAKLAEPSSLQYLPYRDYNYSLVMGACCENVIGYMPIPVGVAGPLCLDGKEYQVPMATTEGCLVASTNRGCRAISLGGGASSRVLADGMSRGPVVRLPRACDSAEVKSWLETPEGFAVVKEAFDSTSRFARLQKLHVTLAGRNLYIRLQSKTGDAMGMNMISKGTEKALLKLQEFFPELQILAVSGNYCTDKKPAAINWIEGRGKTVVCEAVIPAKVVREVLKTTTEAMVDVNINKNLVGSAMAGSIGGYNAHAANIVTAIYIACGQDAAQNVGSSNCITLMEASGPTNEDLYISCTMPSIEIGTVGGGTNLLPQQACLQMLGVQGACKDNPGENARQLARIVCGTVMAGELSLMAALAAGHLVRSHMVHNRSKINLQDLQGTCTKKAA

[30] = target: Tyrosine-protein kinase ITK/TSK (Homo sapiens) (UniProt Q08881); experiment: ITK Invitrogen Lab (UK) kinase screen (BI); conditions: Compound concentration 1.0 uM
Chain of Tyrosine-protein kinase ITK/TSK (Homo sapiens) (Q08881 whole entry): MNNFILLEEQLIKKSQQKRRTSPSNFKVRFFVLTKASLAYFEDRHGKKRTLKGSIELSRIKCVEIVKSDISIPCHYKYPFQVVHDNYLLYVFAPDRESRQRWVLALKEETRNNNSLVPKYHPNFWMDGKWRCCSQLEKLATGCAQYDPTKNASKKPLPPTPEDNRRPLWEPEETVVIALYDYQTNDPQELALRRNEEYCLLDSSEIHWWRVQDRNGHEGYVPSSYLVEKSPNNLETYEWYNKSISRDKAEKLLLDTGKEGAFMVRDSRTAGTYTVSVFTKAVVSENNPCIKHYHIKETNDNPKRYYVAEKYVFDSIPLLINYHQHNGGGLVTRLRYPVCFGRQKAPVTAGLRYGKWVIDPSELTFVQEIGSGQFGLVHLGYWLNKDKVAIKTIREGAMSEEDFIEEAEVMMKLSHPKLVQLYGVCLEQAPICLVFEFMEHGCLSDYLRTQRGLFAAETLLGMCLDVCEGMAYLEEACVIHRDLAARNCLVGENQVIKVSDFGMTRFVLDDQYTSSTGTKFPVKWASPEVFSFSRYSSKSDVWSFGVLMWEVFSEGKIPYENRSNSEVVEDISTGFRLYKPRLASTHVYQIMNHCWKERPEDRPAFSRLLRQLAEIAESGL

[31] = target: STE20/SPS1-related proline-alanine-rich protein kinase (Homo sapiens) (UniProt Q9UEW8); experiment: STK39 (STLK3) Invitrogen Lab (UK) kinase screen (BI); conditions: Compound concentration 1.0 uM
Chymase (Homo sapiens) = Chymase (Homo sapiens) (UniProt P23946); conditions: Compound concentration 10.0 uM
Chain of Chymase (Homo sapiens) (P23946 whole entry): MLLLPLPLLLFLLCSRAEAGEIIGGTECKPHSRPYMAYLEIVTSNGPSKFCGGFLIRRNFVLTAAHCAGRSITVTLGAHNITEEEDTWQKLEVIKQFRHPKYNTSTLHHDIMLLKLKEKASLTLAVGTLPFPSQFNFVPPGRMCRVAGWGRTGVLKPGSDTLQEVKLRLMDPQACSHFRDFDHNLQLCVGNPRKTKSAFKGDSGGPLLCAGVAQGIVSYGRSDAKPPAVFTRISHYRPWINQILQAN

[32] = target: Eukaryotic elongation factor 2 kinase (Homo sapiens) (UniProt O00418); conditions: Compound concentration 1.0 uM
[33] = target: Nitric oxide synthase 3 (Rattus norvegicus) (UniProt Q62600); experiment: CNOS Eurofins SafetyScreen44 (BI); conditions: Compound concentration 10.0 uM
[34] = target: Serine/threonine-protein kinase Nek6 (Homo sapiens) (UniProt Q9HC98); experiment: NEK6 DUNDEE kinase screen (BI); conditions: Compound concentration 10.0 uM
Chain of Serine/threonine-protein kinase Nek6 (Homo sapiens) (Q9HC98 whole entry): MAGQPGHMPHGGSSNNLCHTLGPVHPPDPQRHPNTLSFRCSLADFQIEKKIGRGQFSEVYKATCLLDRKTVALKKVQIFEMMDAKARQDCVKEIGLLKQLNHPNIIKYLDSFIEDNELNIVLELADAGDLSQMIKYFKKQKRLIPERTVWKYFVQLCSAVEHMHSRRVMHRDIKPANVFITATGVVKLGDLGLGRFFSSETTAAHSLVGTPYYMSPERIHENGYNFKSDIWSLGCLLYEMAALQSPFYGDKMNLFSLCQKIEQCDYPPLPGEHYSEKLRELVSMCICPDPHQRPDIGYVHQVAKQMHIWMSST

[35] = target: Serine/threonine-protein kinase DCLK2 (Homo sapiens) (UniProt Q8N568); conditions: Compound concentration 1.0 uM
Chain of Serine/threonine-protein kinase DCLK2 (Homo sapiens) (Q8N568 whole entry): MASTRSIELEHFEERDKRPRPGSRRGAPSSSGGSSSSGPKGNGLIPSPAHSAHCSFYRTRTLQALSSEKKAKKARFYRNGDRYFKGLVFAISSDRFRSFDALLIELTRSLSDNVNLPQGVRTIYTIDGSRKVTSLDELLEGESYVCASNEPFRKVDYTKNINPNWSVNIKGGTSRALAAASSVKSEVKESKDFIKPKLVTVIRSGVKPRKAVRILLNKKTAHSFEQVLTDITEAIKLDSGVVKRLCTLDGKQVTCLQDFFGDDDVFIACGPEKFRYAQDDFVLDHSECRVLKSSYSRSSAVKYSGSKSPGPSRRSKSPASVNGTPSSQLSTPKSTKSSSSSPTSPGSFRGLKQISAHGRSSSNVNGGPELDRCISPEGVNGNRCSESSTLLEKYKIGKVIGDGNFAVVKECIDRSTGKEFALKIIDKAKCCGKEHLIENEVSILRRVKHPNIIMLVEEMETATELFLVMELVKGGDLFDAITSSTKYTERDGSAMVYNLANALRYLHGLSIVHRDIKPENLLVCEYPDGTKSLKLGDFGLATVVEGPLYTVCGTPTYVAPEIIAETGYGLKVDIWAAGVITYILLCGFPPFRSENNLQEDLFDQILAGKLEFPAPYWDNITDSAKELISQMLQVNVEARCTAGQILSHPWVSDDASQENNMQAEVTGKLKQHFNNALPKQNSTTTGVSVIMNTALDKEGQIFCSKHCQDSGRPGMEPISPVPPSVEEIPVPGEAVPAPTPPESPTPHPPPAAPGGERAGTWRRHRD

[36] = target: Serine/threonine-protein kinase 17B (Homo sapiens) (UniProt O94768); conditions: Compound concentration 1.0 uM
[37] = target: Serine/threonine-protein kinase 3 (Homo sapiens) (UniProt Q13188); conditions: Compound concentration 10.0 uM

Compound `CCC(F)(F)c1cc(N2CCC(S(C)(=O)=O)CC2)nc2sc(C(N)=O)c(N)c12` [BI-605906] has a residual activity [1] of 88%, a residual activity [2] of 91% and a residual activity [3] of 101%. For the same compound, the residual activity [4] was 109%, the residual activity [5] was 99% and the residual activity [6] was 73.3%. It also gave a residual activity [7] of 101%, a residual activity [8] of 97% and a residual activity [9] of 90%. The residual activity [10] was 93%, the residual activity [11] was 99% and the residual activity [12] was 95%. For the same compound, the residual activity [13] was 96%, the residual activity [14] was 112% and the IC50 [15] was 6.5 µM (not active). For the same compound, the residual activity [16] was 84%, the inhibition [17] was 25.7% and the residual activity ([18]; Compound concentration 10.0 uM) was 99%. For the same compound, the residual activity ([18]; Compound concentration 100.0 uM) was 96%, the residual activity [19] was 87% and the residual activity [20] was 90%. For the same compound, the residual activity [21] was 92%, the residual activity [22] was 105% and the residual activity [23] was 95%. For the same compound, the residual activity [24] was 93%, the residual activity [25] was 75% and the residual activity ([26]; Compound concentration 1.0 uM) was 92%. The residual activity ([26]; Compound concentration 10.0 uM) was 95%, the residual activity [27] was 88% and the residual activity [28] was 82%. It also gave a residual activity [29] of 85%, a residual activity [30] of 107% and a residual activity [31] of 88%. For the same compound, the residual activity (Chymase (Homo sapiens)) was 93%, the residual activity [32] was 98% and the residual activity [33] was 102%. The residual activity [34] was 83.3%, the residual activity [35] was 101% and the residual activity [36] was 97%. The residual activity [37] was 91%.
